# Assay results published in the NIST ThermoML archive (doi:10.1021/acs.jced.5b00105).
# Numbers after ± are expanded uncertainties.
# Experiment: xn = mol fraction of the nth substance listed
# Details: 100 kPa, Liquid; for mass density: Vibrating tube method; for viscosity: Concentric cylinders viscometry
smiles,measurement,setting,value
CCCCC1CCCCC1 [butylcyclohexane] + CC(C)CC(C)(C)C,mass density,"308.15 K, x1 = 0.0999",691.83 ± 0.19 kg/m3
same,mass density,"308.15 K, x1 = 0.2002",703.8 ± 0.18 kg/m3
same,mass density,"308.15 K, x1 = 0.3001",715.4 ± 0.18 kg/m3
same,mass density,"308.15 K, x1 = 0.3996",726.61 ± 0.18 kg/m3
same,mass density,"308.15 K, x1 = 0.5005",737.66 ± 0.17 kg/m3
same,mass density,"308.15 K, x1 = 0.6003",748.29 ± 0.17 kg/m3
same,mass density,"308.15 K, x1 = 0.6994",758.58 ± 0.16 kg/m3
same,mass density,"308.15 K, x1 = 0.8",768.72 ± 0.16 kg/m3
same,mass density,"308.15 K, x1 = 0.9001",778.55 ± 0.16 kg/m3
same,mass density,"308.15 K, x1 = 1",788.12 ± 0.15 kg/m3
same,viscosity,"313.15 K, x1 = 0.0999",0.464 ± 0.074 mPa·s
same,viscosity,"313.15 K, x1 = 0.2002",0.502 ± 0.08 mPa·s
same,viscosity,"313.15 K, x1 = 0.3001",0.544 ± 0.087 mPa·s
same,viscosity,"313.15 K, x1 = 0.3996",0.588 ± 0.094 mPa·s
same,viscosity,"313.15 K, x1 = 0.5005",0.638 ± 0.1 mPa·s
same,viscosity,"313.15 K, x1 = 0.6003",0.691 ± 0.11 mPa·s
same,viscosity,"313.15 K, x1 = 0.6994",0.749 ± 0.12 mPa·s
same,viscosity,"313.15 K, x1 = 0.8",0.814 ± 0.13 mPa·s
same,viscosity,"313.15 K, x1 = 0.9001",0.883 ± 0.14 mPa·s
same,viscosity,"313.15 K, x1 = 1",0.961 ± 0.15 mPa·s
same,mass density,"313.15 K, x1 = 0.0999",687.7 ± 0.19 kg/m3
same,mass density,"313.15 K, x1 = 0.2002",699.73 ± 0.19 kg/m3
same,mass density,"313.15 K, x1 = 0.3001",711.37 ± 0.18 kg/m3
same,mass density,"313.15 K, x1 = 0.3996",722.64 ± 0.18 kg/m3
same,mass density,"313.15 K, x1 = 0.5005",733.72 ± 0.17 kg/m3
same,mass density,"313.15 K, x1 = 0.6003",744.39 ± 0.17 kg/m3
same,mass density,"313.15 K, x1 = 0.6994",754.72 ± 0.17 kg/m3
same,mass density,"313.15 K, x1 = 0.8",764.89 ± 0.16 kg/m3
same,mass density,"313.15 K, x1 = 0.9001",774.76 ± 0.16 kg/m3
same,mass density,"313.15 K, x1 = 1",784.35 ± 0.15 kg/m3
same,viscosity,"318.15 K, x1 = 0.0999",0.446 ± 0.072 mPa·s
same,viscosity,"318.15 K, x1 = 0.2002",0.482 ± 0.077 mPa·s
same,viscosity,"318.15 K, x1 = 0.3001",0.519 ± 0.083 mPa·s
same,viscosity,"318.15 K, x1 = 0.3996",0.561 ± 0.09 mPa·s
same,viscosity,"318.15 K, x1 = 0.5005",0.607 ± 0.097 mPa·s
same,viscosity,"318.15 K, x1 = 0.6003",0.654 ± 0.11 mPa·s
same,viscosity,"318.15 K, x1 = 0.6994",0.708 ± 0.11 mPa·s
same,viscosity,"318.15 K, x1 = 0.8",0.765 ± 0.12 mPa·s
same,viscosity,"318.15 K, x1 = 0.9001",0.829 ± 0.13 mPa·s
same,viscosity,"318.15 K, x1 = 1",0.9 ± 0.14 mPa·s
same,mass density,"318.15 K, x1 = 0.0999",683.64 ± 0.19 kg/m3
same,mass density,"318.15 K, x1 = 0.2002",695.56 ± 0.19 kg/m3
same,mass density,"318.15 K, x1 = 0.3001",707.24 ± 0.18 kg/m3
same,mass density,"318.15 K, x1 = 0.3996",718.6 ± 0.18 kg/m3
same,mass density,"318.15 K, x1 = 0.5005",729.73 ± 0.17 kg/m3
same,mass density,"318.15 K, x1 = 0.6003",740.43 ± 0.17 kg/m3
same,mass density,"318.15 K, x1 = 0.6994",750.82 ± 0.17 kg/m3
same,mass density,"318.15 K, x1 = 0.8",760.98 ± 0.16 kg/m3
same,mass density,"318.15 K, x1 = 0.9001",770.84 ± 0.16 kg/m3
same,mass density,"318.15 K, x1 = 1",780.49 ± 0.15 kg/m3
same,viscosity,"323.15 K, x1 = 0.0999",0.427 ± 0.068 mPa·s
same,viscosity,"323.15 K, x1 = 0.2002",0.46 ± 0.074 mPa·s
same,viscosity,"323.15 K, x1 = 0.3001",0.496 ± 0.08 mPa·s
same,viscosity,"323.15 K, x1 = 0.3996",0.534 ± 0.086 mPa·s
same,viscosity,"323.15 K, x1 = 0.5005",0.575 ± 0.092 mPa·s
same,viscosity,"323.15 K, x1 = 0.6003",0.62 ± 0.099 mPa·s
same,viscosity,"323.15 K, x1 = 0.6994",0.668 ± 0.11 mPa·s
same,viscosity,"323.15 K, x1 = 0.8",0.721 ± 0.12 mPa·s
same,viscosity,"323.15 K, x1 = 0.9001",0.779 ± 0.12 mPa·s
same,viscosity,"323.15 K, x1 = 1",0.844 ± 0.14 mPa·s
same,mass density,"323.15 K, x1 = 0.0999",679.45 ± 0.19 kg/m3
same,mass density,"323.15 K, x1 = 0.2002",691.42 ± 0.19 kg/m3
same,mass density,"323.15 K, x1 = 0.3001",703.16 ± 0.18 kg/m3
same,mass density,"323.15 K, x1 = 0.3996",714.56 ± 0.18 kg/m3
same,mass density,"323.15 K, x1 = 0.5005",725.73 ± 0.18 kg/m3
same,mass density,"323.15 K, x1 = 0.6003",736.49 ± 0.17 kg/m3
same,mass density,"323.15 K, x1 = 0.6994",746.95 ± 0.17 kg/m3
same,mass density,"323.15 K, x1 = 0.8",757.16 ± 0.16 kg/m3
same,mass density,"323.15 K, x1 = 0.9001",767.06 ± 0.16 kg/m3
same,mass density,"323.15 K, x1 = 1",776.7 ± 0.16 kg/m3
same,viscosity,"333.15 K, x1 = 0.0999",0.396 ± 0.064 mPa·s
same,viscosity,"333.15 K, x1 = 0.2002",0.424 ± 0.068 mPa·s
same,viscosity,"333.15 K, x1 = 0.3001",0.454 ± 0.073 mPa·s
same,viscosity,"333.15 K, x1 = 0.3996",0.487 ± 0.078 mPa·s
same,viscosity,"333.15 K, x1 = 0.5005",0.522 ± 0.084 mPa·s
same,viscosity,"333.15 K, x1 = 0.6003",0.56 ± 0.09 mPa·s
same,viscosity,"333.15 K, x1 = 0.6994",0.601 ± 0.096 mPa·s
same,viscosity,"333.15 K, x1 = 0.8",0.646 ± 0.1 mPa·s
same,viscosity,"333.15 K, x1 = 0.9001",0.695 ± 0.11 mPa·s
same,viscosity,"333.15 K, x1 = 1",0.749 ± 0.12 mPa·s
same,mass density,"333.15 K, x1 = 0.0999",670.99 ± 0.19 kg/m3
same,mass density,"333.15 K, x1 = 0.2002",683.12 ± 0.19 kg/m3
same,mass density,"333.15 K, x1 = 0.3001",694.98 ± 0.19 kg/m3
same,mass density,"333.15 K, x1 = 0.3996",706.46 ± 0.18 kg/m3
same,mass density,"333.15 K, x1 = 0.5005",717.7 ± 0.18 kg/m3
same,mass density,"333.15 K, x1 = 0.6003",728.53 ± 0.17 kg/m3
same,mass density,"333.15 K, x1 = 0.6994",739.06 ± 0.17 kg/m3
same,mass density,"333.15 K, x1 = 0.8",749.37 ± 0.17 kg/m3
same,mass density,"333.15 K, x1 = 0.9001",759.38 ± 0.16 kg/m3
same,mass density,"333.15 K, x1 = 1",769.09 ± 0.16 kg/m3
same,viscosity,"343.15 K, x1 = 0.0999",0.369 ± 0.059 mPa·s
same,viscosity,"343.15 K, x1 = 0.2002",0.394 ± 0.063 mPa·s
same,viscosity,"343.15 K, x1 = 0.3001",0.42 ± 0.067 mPa·s
same,viscosity,"343.15 K, x1 = 0.3996",0.448 ± 0.072 mPa·s
same,viscosity,"343.15 K, x1 = 0.5005",0.48 ± 0.077 mPa·s
same,viscosity,"343.15 K, x1 = 0.6003",0.51 ± 0.082 mPa·s
same,viscosity,"343.15 K, x1 = 0.6994",0.545 ± 0.087 mPa·s
same,viscosity,"343.15 K, x1 = 0.8",0.584 ± 0.094 mPa·s
same,viscosity,"343.15 K, x1 = 0.9001",0.626 ± 0.1 mPa·s
same,viscosity,"343.15 K, x1 = 1",0.671 ± 0.11 mPa·s
same,mass density,"343.15 K, x1 = 0.0999",662.4 ± 0.2 kg/m3
same,mass density,"343.15 K, x1 = 0.2002",674.66 ± 0.19 kg/m3
same,mass density,"343.15 K, x1 = 0.3001",686.64 ± 0.19 kg/m3
same,mass density,"343.15 K, x1 = 0.3996",698.25 ± 0.18 kg/m3
same,mass density,"343.15 K, x1 = 0.5005",709.63 ± 0.18 kg/m3
same,mass density,"343.15 K, x1 = 0.6003",720.57 ± 0.18 kg/m3
same,mass density,"343.15 K, x1 = 0.6994",731.21 ± 0.17 kg/m3
same,mass density,"343.15 K, x1 = 0.8",741.57 ± 0.17 kg/m3
same,mass density,"343.15 K, x1 = 0.9001",751.62 ± 0.16 kg/m3
same,mass density,"343.15 K, x1 = 1",761.43 ± 0.16 kg/m3
